Eight compounds from ChEMBL document CHEMBL1909046, “DrugMatrix in vitro pharmacology data” can be followed below.

The structures appear in SMILES notation.
Further: in other assays of this panel Not Active means under 50% inhibition at 10 µM.

Sequence of Cytochrome P450 2D6 (P10635 whole entry): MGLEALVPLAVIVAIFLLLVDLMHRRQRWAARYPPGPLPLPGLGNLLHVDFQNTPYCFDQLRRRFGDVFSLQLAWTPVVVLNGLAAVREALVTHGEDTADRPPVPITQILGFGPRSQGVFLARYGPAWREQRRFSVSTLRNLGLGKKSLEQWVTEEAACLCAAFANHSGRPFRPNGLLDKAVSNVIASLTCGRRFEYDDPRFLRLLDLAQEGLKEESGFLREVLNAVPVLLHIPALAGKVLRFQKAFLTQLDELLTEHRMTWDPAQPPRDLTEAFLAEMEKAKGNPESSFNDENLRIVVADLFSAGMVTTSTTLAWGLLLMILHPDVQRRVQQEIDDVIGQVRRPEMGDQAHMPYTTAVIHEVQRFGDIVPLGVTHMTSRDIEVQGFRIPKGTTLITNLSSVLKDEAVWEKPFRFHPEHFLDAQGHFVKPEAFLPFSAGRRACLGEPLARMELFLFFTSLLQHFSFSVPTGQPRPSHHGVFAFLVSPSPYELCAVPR

In the first data set the target is T1, Cytochrome P450 1A2 (Homo sapiens, UniProt P05177).
T1 sequence (P05177 whole entry): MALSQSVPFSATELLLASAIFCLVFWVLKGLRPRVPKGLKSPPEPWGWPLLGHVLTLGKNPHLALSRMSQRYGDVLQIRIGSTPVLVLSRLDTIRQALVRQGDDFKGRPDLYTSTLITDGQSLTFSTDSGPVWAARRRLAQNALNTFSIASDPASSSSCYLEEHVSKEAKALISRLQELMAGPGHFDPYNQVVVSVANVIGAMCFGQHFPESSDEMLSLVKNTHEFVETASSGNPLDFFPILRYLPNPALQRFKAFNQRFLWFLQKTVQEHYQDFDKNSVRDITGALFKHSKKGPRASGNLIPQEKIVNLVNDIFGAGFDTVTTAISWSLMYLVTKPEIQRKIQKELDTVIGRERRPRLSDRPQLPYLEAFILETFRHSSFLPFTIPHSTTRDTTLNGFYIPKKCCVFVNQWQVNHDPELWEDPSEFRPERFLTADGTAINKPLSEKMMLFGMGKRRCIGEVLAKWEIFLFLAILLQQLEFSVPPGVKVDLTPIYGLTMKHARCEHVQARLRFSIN
The settings on record: bti-tn-5b1-4.
`CN(C)CCCN1c2ccccc2CCc2ccc(Cl)cc21` [CLOMIPRAMINE]: the IC50 entry was “Not Active” and the Ki entry is listed as “Not Active”.

The target in another data set is T2, Type-2 angiotensin II receptor (Homo sapiens, UniProt P50052).
T2 sequence (P50052 whole entry): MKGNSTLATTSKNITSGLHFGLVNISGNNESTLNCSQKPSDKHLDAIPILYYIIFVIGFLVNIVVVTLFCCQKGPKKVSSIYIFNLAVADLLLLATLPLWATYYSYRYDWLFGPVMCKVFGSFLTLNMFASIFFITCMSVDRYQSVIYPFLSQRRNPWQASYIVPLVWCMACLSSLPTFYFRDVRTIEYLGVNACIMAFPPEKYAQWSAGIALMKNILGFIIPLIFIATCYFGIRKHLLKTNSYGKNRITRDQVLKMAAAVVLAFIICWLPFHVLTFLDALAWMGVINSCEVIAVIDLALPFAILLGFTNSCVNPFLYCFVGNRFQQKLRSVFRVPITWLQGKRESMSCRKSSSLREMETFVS
It counts as cell-based. To be noted: cho-k1.
On to `Cc1cc(NS(=O)(=O)c2ccc(N)cc2)no1` [SULFAMETHOXAZOLE], for which the IC50 result is listed as “Not Active”.

In the case of `CN[C@@H]1[C@@H](O)[C@@H](O[C@@H]2[C@@H](O)[C@H](O[C@H]3OC(CN)=CC[C@H]3N)[C@@H](N)C[C@H]2N)OC[C@]1(C)O` [SISOMICIN], the IC50 result is on record as “Not Active”.

Turning to `O=C1c2c(O)ccc(O)c2C(=O)c2c(NCCNCCO)ccc(NCCNCCO)c21` [MITOXANTRONE], the IC50 result is recorded as “Not Active”.

In the case of `NNc1ccccc1` [PHENYLHYDRAZINE], the IC50 result is recorded as “Not Active”.

For `NCCCC[C@H](N[C@@H](CCc1ccccc1)C(=O)O)C(=O)N1CCC[C@H]1C(=O)O` [LISINOPRIL ANHYDROUS], the IC50 entry is “Not Active”.

As for `Nc1ccc(S(N)(=O)=O)cc1` [SULFANILAMIDE], the IC50 entry is recorded as “Not Active”.

For `CN(C)[C@@H]1C(O)=C(C(N)=O)C(=O)[C@@]2(O)C(O)=C3C(=O)c4c(O)cccc4[C@@](C)(O)[C@H]3C[C@@H]12` [TETRACYCLINE], the IC50 entry is reported as “Not Active”.

For `CN(C)CCCN1c2ccccc2CCc2ccc(Cl)cc21` [CLOMIPRAMINE], the IC50 entry was “Not Active”.

In a further data set the target is T3, Nitric oxide synthase, inducible (Mus musculus, UniProt P29477).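 Further: inhibition of iNOS enzyme activity measured with L-arginine as substrate.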
T3 sequence (P29477 whole entry): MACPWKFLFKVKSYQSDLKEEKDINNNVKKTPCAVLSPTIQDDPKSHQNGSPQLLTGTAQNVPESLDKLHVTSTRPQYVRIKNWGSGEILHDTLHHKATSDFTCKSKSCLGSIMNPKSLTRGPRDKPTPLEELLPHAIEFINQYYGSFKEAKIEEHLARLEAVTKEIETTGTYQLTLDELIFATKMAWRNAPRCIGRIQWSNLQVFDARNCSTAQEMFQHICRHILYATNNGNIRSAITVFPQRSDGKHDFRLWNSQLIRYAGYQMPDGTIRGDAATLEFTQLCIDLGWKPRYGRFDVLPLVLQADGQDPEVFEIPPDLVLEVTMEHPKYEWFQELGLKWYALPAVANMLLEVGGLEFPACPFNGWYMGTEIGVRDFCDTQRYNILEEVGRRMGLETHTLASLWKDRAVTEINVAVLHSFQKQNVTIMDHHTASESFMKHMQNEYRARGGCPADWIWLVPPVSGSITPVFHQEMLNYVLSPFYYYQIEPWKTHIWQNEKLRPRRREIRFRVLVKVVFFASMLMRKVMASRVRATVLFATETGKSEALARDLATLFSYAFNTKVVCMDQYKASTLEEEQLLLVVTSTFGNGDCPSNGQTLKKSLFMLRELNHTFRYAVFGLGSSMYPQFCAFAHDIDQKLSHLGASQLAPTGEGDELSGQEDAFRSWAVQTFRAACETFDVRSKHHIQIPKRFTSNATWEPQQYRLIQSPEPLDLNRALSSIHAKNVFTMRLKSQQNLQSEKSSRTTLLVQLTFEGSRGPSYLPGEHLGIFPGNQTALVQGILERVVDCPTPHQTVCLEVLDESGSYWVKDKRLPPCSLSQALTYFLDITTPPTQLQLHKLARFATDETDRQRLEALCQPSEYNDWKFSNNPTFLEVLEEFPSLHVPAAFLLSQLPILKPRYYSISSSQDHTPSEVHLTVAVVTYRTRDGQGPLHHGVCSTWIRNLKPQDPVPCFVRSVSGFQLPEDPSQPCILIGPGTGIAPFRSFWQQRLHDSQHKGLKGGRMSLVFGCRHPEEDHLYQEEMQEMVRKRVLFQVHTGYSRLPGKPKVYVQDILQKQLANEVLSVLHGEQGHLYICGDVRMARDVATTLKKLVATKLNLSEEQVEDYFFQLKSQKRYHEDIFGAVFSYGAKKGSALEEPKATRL
Set-up: species or system Escherichia coli.
Conditions: not given
In the case of `Cc1cc(NS(=O)(=O)c2ccc(N)cc2)no1` [SULFAMETHOXAZOLE], the IC50 result was “Not Active”.

`CN[C@@H]1[C@@H](O)[C@@H](O[C@@H]2[C@@H](O)[C@H](O[C@H]3OC(CN)=CC[C@H]3N)[C@@H](N)C[C@H]2N)OC[C@]1(C)O` [SISOMICIN]: the IC50 result is given as “Not Active”.

For the compound `O=C1c2c(O)ccc(O)c2C(=O)c2c(NCCNCCO)ccc(NCCNCCO)c21` [MITOXANTRONE], the Ki result is “Not Active”.

Turning to `NNc1ccccc1` [PHENYLHYDRAZINE], the IC50 result is “Not Active”.

Consider `NCCCC[C@H](N[C@@H](CCc1ccccc1)C(=O)O)C(=O)N1CCC[C@H]1C(=O)O` [LISINOPRIL ANHYDROUS], for which the IC50 result is given as “Not Active”.

`Nc1ccc(S(N)(=O)=O)cc1` [SULFANILAMIDE]: the IC50 result is listed as “Not Active”.

On to `CN(C)[C@@H]1C(O)=C(C(N)=O)C(=O)[C@@]2(O)C(O)=C3C(=O)c4c(O)cccc4[C@@](C)(O)[C@H]3C[C@@H]12` [TETRACYCLINE], for which the IC50 entry is listed as “Not Active”.

`CN(C)CCCN1c2ccccc2CCc2ccc(Cl)cc21` [CLOMIPRAMINE]: the IC50 entry is “Not Active”.

The target of another data set is Cytochrome P450 2C9 (Homo sapiens, UniProt P11712). To be noted: bti-tn-5b1-4.
Sequence of Cytochrome P450 2C9 (P11712 whole entry): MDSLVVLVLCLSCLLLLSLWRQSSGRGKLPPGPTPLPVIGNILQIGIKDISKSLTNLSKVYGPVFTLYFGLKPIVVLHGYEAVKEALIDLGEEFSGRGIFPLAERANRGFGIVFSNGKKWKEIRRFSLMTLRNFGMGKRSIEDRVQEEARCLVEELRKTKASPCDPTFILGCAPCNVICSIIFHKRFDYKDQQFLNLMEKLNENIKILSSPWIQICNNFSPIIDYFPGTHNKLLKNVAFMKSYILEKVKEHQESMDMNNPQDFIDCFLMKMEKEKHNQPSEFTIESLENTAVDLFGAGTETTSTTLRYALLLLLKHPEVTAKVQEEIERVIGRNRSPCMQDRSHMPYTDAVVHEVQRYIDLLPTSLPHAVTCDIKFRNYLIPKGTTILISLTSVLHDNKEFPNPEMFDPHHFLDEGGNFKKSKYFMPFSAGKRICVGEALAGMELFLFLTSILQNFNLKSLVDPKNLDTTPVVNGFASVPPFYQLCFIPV
Turning to `NCCCC[C@H](N[C@@H](CCc1ccccc1)C(=O)O)C(=O)N1CCC[C@H]1C(=O)O` [LISINOPRIL ANHYDROUS], the IC50 result is on record as “Not Active” and the Ki entry is given as “Not Active”.

On to `CN(C)CCCN1c2ccccc2CCc2ccc(Cl)cc21` [CLOMIPRAMINE], for which the IC50 result was “Not Active” and the Ki entry is given as “Not Active”.

The target in the next data set is Cytochrome P450 2C19 (Homo sapiens, UniProt P33261). To be noted: bti-tn-5b1-4.
Sequence of Cytochrome P450 2C19 (P33261 whole entry): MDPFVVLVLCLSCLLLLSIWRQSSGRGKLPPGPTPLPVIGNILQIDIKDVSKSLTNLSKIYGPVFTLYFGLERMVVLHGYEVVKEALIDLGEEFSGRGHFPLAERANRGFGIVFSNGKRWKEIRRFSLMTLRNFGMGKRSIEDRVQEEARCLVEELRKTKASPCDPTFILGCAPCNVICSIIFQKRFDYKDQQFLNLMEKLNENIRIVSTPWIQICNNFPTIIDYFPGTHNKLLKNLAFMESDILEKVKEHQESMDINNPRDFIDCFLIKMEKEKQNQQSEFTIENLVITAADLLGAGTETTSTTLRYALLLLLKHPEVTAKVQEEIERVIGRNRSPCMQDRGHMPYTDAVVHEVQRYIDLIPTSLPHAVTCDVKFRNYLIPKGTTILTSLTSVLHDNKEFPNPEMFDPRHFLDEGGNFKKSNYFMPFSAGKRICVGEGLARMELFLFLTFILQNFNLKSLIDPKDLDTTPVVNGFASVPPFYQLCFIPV
In the case of `NCCCC[C@H](N[C@@H](CCc1ccccc1)C(=O)O)C(=O)N1CCC[C@H]1C(=O)O` [LISINOPRIL ANHYDROUS], the IC50 result is given as “Not Active” and the Ki result is listed as “Not Active”.

Regarding `CN(C)[C@@H]1C(O)=C(C(N)=O)C(=O)[C@@]2(O)C(O)=C3C(=O)c4c(O)cccc4[C@@](C)(O)[C@H]3C[C@@H]12` [TETRACYCLINE], the IC50 result is “Not Active” and the Ki entry is “Not Active”.

Turning to `CN(C)CCCN1c2ccccc2CCc2ccc(Cl)cc21` [CLOMIPRAMINE], the IC50 entry was “Not Active” and the Ki result is “Not Active”.

The next data set has as its target Cytochrome P450 2D6 (Homo sapiens, UniProt P10635). To be noted: bti-tn-5b1-4.
Take `NCCCC[C@H](N[C@@H](CCc1ccccc1)C(=O)O)C(=O)N1CCC[C@H]1C(=O)O` [LISINOPRIL ANHYDROUS]: the IC50 entry was “Not Active” and the Ki result is reported as “Not Active”.

On to `CN(C)[C@@H]1C(O)=C(C(N)=O)C(=O)[C@@]2(O)C(O)=C3C(=O)c4c(O)cccc4[C@@](C)(O)[C@H]3C[C@@H]12` [TETRACYCLINE], for which the IC50 entry is on record as “Not Active” and the Ki entry is given as “Not Active”.
